How the values were obtained:
Format in all cases: in vivo
Details in all cases: 20 days after
[1] = tested on: damping-off fungus (Rhizoctonia solani); assay: Test Example 21: corn seed treatment, damping-off pot test
Description: A chemical liquid wherein penflufen is dissolved in acetone/Tween 20 (weight ratio=95:5) and a chemical liquid wherein fluxapyroxad is dissolved in acetone/Tween 20 (weight ratio=95:5) were prepared independently. In a rotary seed treatment machine (trade name: HEGE11, manufactured by WINTERSTEIGER), corn seeds (variety: yellow dent corn) were treated by smearing treatment using one of these chemical liquid and the flowable formulation of the present bacterial strain obtained in Formulation Example 13, so that the corn seeds retain the present bacterial strain and/or the compound in the amount shown in Table 6.
Cultivation was carried out in a greenhouse under irrigation (“treated compartment”). The plants were investigated 20 days after for the number of diseased plants, and the disease incidence was calculated by the following “Equation 1”. Similar procedures were conducted using untreated corn seeds, instead of the treated corn seeds, as described above for the treated compartment (“untreated compartment”). The plants were investigated 20 days after for the number of diseased plants, and the disease incidence was calculated by the following “Equation 1”. The control value of the treated compartment was calculated by the following equation “Equation 2”, based on the disease incidences of the treated compartment and the untreated compartment. Disease incidence (%)=100×(number of diseased plant/total number of seeded seeds): Equation 1 Control value (%)=100×[(disease incidence in untreated compartment−disease incidence in treated compartment)/disease incidence in untreated compartment]: Equation 2
(§1) If the effect by the combination of two active ingredients is greater than that of the estimated value E, which is calculated by the Colby's equation as follows, the effect is regarded as synergistic. E=X+Y−X·Y/100 wherein, E=Control value when using the mixture of the active ingredients A and B at the concentrations m and n (amount of the active ingredient), respectively. X=Control value when using the active ingredient A at the concentration m (amount of the active ingredient). Y=Control value when using the active ingredient B at the concentration n (amount of the active ingredient).

[2] = tested on: phytopathogenic Fusarium (Fusarium sp.); assay: Test Example 23: soybean seed treatment, Fusarium pot test
Description: as §1
Boscalid was dissolved in acetone/Tween 20 (weight ratio=95:5) to prepare a chemical liquid. In a rotary seed treatment machine (trade name: HEGE11, manufactured by WINTERSTEIGER), soybean seeds (variety:“Hatayutaka”) were treated by smearing treatment using the chemical liquid and the flowable formulation of the present bacterial strain obtained in Formulation Example 13 and sedaxane flowable formulation (43.7% flowable formulation, trade name: Vibrance, Syngenta Crop Protection LLC), so that the soybean seeds retain the bacteria, sedaxane and boscalid in the amount shown in Table 8.
Cultivation was carried out in a greenhouse under irrigation (“treated compartment”). The plants were investigated 20 days after for the number of diseased plants, and the disease incidence was calculated by the following “Equation 1”. Also, similar procedures were conducted using untreated soybean seeds, instead of the treated soybean seeds, as described above for the treated compartment (“untreated compartment”).
The plants were investigated 20 days after for the number of diseased plants, and the disease incidence was calculated by the following “Equation 1”. The control value of the treated compartment was calculated by the following equation “Equation 2”, based on the disease incidences of the treated compartment and the untreated compartment. Disease incidence (%)=100×(number of diseased plant/total number of seeded seeds): Equation 1 Control value (%)=100×[(disease incidence in untreated compartment−disease incidence in treated compartment)/disease incidence in untreated compartment]: Equation 2

[3] = tested on: phytopathogenic Fusarium (Fusarium sp.); assay: Test Example 22: soybean seed treatment, Fusarium pot test
Description: If the effect by the combination of two active ingredients is greater than that of the estimated value E, which is calculated by the Colby's equation as follows, the effect is regarded as synergistic. E=X+Y−X·Y/100 wherein, E=Control value when using the mixture of the active ingredients A and B at the concentrations m and n (amount of the active ingredient), respectively. X=Control value when using the active ingredient A at the concentration m (amount of the active ingredient). Y=Control value when using the active ingredient B at the concentration n (amount of the active ingredient). […]
Cultivation was carried out in a greenhouse under irrigation (“treated compartment”). The plants were investigated 20 days after for the number of diseased plants, and the disease incidence was calculated by the following “Equation 1”. […] The plants were investigated 20 days after for the number of diseased plants, and the disease incidence was calculated by the following “Equation 1”. The control value of the treated compartment was calculated by the following equation “Equation 2”, based on the disease incidences of the treated compartment and the untreated compartment. […]

[4] = corn seeds retaining 0.005 g/Kg seeds of compound alone
[5] = soybean seeds retaining 0.05 g/Kg seeds of compound alone

Cc1nn(C)c(F)c1C(=O)Nc1ccccc1C(C)CC(C)C (stereo not shown) [Penflufen, penflufen]
Controlling Effect [1, 4]: 25%
Controlling Effect ([1]; corn seeds retaining 0.01 g/Kg seeds of compound alone): 42%

O=C(Nc1ccccc1-c1ccc(Cl)cc1)c1cccnc1Cl [Boscalid, boscalid]
Controlling Effect [2, 5]: 23%
Controlling Effect ([2]; soybean seeds retaining 0.1 g/Kg seeds of compound alone): 47%

Cn1cc(C(=O)Nc2ccccc2-c2cc(F)c(F)c(F)c2)c(C(F)F)n1 [Fluxapyroxad, fluxapyroxad]
Controlling Effect ([1]; corn seeds retaining 0.0025 g/Kg seeds of compound alone): 31%
Controlling Effect [1, 4]: 39%

O=C(NCCc1ncc(C(F)(F)F)cc1Cl)c1ccccc1C(F)(F)F [Fluopyram, fluopyram]
Controlling Effect ([3]; soybean seeds retaining 0.025 g/Kg seeds of compound alone): 29%
Controlling Effect [3, 5]: 44%

Cn1cc(C(=O)Nc2ccccc2C2CC2C2CC2)c(C(F)F)n1 (stereo not shown) [Sedaxane, sedaxane]
Controlling Effect ([2]; soybean seeds retaining 0.005 g/Kg seeds of compound alone): 32%
Controlling Effect ([2]; soybean seeds retaining 0.01 g/Kg seeds of compound alone): 35%

Source: patent publication US10463048B2, “Plant disease control composition and plant disease control method” (SUMITOMO CHEMICAL COMPANY, LIMITED, priority 2015, dated 2019)
